Test results as given in patent US20090170812A1, “Transcription factor modulating compounds and methods of use thereof” (priority 2006, published 2009).
pEC50: −log10 of the molar value.

What was measured:
[1] = molecular target: LcrF (VirF) (Yersinia pestis, UniProt P28808); experiment: biochemical; type: binding, Y. pseudotuberculosis
[2] = molecular target: T1, ExsA (Pseudomonas aeruginosa, UniProt P26993); experiment: In vitro activity of Mar inhibitors against ExsA: cell-free DNA binding assay; settings: purified ExsA from P. aeruginosa, inhibition of DNA binding in vitro
T1 construct: made in house
T1 sequence (P26993 1-278): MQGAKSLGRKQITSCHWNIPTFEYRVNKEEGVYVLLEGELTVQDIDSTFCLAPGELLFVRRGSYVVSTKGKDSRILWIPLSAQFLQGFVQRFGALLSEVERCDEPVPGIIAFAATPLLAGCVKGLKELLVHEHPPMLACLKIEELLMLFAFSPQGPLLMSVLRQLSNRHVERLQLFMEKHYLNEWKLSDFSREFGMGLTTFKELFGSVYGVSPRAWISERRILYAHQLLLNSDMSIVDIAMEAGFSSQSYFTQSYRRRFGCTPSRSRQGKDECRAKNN

[3] = system: Yersinia pseudotuberculosis
[4] = system: P. aeruginosa; experiment: Whole cell assay: cytotoxicity of P. aeruginosa toward J774 cells (CytoTox 96, LDH release); settings: percent cytotoxicity of treated P. aeruginosa toward J774 cells

LcrF (VirF), sequence (P28808 whole entry, looked up): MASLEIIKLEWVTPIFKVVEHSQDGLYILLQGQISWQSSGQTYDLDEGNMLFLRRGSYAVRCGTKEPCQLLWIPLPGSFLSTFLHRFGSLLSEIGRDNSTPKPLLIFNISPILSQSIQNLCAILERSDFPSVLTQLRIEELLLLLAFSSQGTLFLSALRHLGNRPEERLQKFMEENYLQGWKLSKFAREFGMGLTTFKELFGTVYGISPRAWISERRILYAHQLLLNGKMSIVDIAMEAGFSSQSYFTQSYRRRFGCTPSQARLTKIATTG

Row | Compound | pEC50 [1] | pEC50 [2] | Cytotoxicity at 50 μg/mL Yersinia [3] | Cytotoxicity at 50 μg/mL Pseudomonas [4]
1 | O=C(/C=C/c1ccc(-n2cncn2)cc1)Nc1ccc(-c2nc3ccc([N+](=O)[O-])cc3n2O)cc1 [Compound BI, (E)-N-[4-(1-Hydroxy-6-nitro-1H-benzoimidazol-2-yl)-phenyl]-3-(4-[1,2,4]triazol-1-yl-phenyl)-acrylamide] | < 4.60 | > 5.00 | ** (key: *: percent cytotoxicity above 75% at 50 μg/mL; **: cytotoxicities below 75% at 50 μg/mL) | ** (cytotoxicities below 75% at 50 mg/mL)
2 | CCOc1cc2nc(-c3ccc(NC(=O)/C=C/c4ccc(F)cc4)cc3)n(O)c2cc1[N+](=O)[O-] [Compound BJ, (E)-N-[4-(5-Ethoxy-1-hydroxy-6-nitro-1H-benzoimidazol-2-yl)-phenyl]-3-(4-fluoro-phenyl)-acrylamide] | 4.60 to 5.00 | > 5.00 | ** (key: *: percent cytotoxicity above 75% at 50 μg/mL; **: cytotoxicities below 75% at 50 μg/mL) | ** (cytotoxicities below 75% at 50 mg/mL)
3 | Cc1cc2nc(-c3ccc(NC(=O)c4ccc(-c5cnco5)cc4)cc3)n(O)c2cc1[N+](=O)[O-] [Compound BL, N-[4-(1-Hydroxy-5-methyl-6-nitro-1H-benzoimidazol-2-yl)-phenyl]-4-oxazol-5-yl-benzamide] | < 4.60 | > 5.00 | ** (key: *: percent cytotoxicity above 75% at 50 μg/mL; **: cytotoxicities below 75% at 50 μg/mL) | ** (cytotoxicities below 75% at 50 mg/mL)
4 | CN(C)c1cc2nc(-c3ccc(NC(=O)/C=C/c4ccc(F)cc4)cc3)n(O)c2cc1[N+](=O)[O-] [Compound BN, N-[4-(5-Dimethylamino-1-hydroxy-6-nitro-1H-benzoimidazol-2-yl)-phenyl]-3-(4-fluorocinnamyl)-amide] | < 4.60 | 4.60 to 5.00 | ** (key: *: percent cytotoxicity above 75% at 50 μg/mL; **: cytotoxicities below 75% at 50 μg/mL) | ** (cytotoxicities below 75% at 50 mg/mL)
5 | N#Cc1ccc2nc(-c3ccc(NC(=O)/C=C/c4ccc(F)cc4)cc3)n(O)c2c1 [Compound B] | > 5.00 | > 5.00 | ** (key: *: percent cytotoxicity above 75% at 50 μg/mL; **: cytotoxicities below 75% at 50 μg/mL) | ** (cytotoxicities below 75% at 50 mg/mL)
6 | CC(=O)c1ccc(C(=O)Nc2ccc(-c3nc4ccc(C#N)cc4n3O)cc2)cc1 [Compound C] | < 4.60 | > 5.00 | ** (key: *: percent cytotoxicity above 75% at 50 μg/mL; **: cytotoxicities below 75% at 50 μg/mL) | ** (cytotoxicities below 75% at 50 mg/mL)
7 | N#Cc1ccc(C(=O)Nc2ccc(-c3nc4ccc(C#N)cc4n3O)cc2)cc1 [D] | > 5.00 | > 5.00 | ** (key: *: percent cytotoxicity above 75% at 50 μg/mL; **: cytotoxicities below 75% at 50 μg/mL) | * (percent cytotoxicities above 75% at 50 mg/mL)
8 | Cc1ccc(/C=C/C(=O)Nc2ccc(-c3nc4ccc(C#N)cc4n3O)cc2)cc1 [E] | 4.60 to 5.00 | > 5.00 | ** (key: *: percent cytotoxicity above 75% at 50 μg/mL; **: cytotoxicities below 75% at 50 μg/mL) | * (percent cytotoxicities above 75% at 50 mg/mL)
9 | O=C(Nc1ccc(-c2nc3ccc([N+](=O)[O-])cc3n2O)cc1)/C(=C/c1ccccc1)c1ccccc1 [F] | > 5.00 | 4.60 to 5.00 | * (key: *: percent cytotoxicity above 75% at 50 μg/mL; **: cytotoxicities below 75% at 50 μg/mL) | ** (cytotoxicities below 75% at 50 mg/mL)
10 | O=C(Nc1ccc(-c2nc3ccc([N+](=O)[O-])cc3n2O)cc1)/C(F)=C/c1ccccc1 [G] | 4.60 to 5.00 | > 5.00 | * (key: *: percent cytotoxicity above 75% at 50 μg/mL; **: cytotoxicities below 75% at 50 μg/mL) | ** (cytotoxicities below 75% at 50 mg/mL)
11 | COc1ccc(/C=C/C(=O)Nc2ccc(-c3nc4ccc([N+](=O)[O-])cc4n3O)cc2)c(OC)c1 [J] | < 4.60 | > 5.00 | ** (key: *: percent cytotoxicity above 75% at 50 μg/mL; **: cytotoxicities below 75% at 50 μg/mL) | * (percent cytotoxicities above 75% at 50 mg/mL)
12 | N#Cc1ccc2nc(-c3ccc(NC(=O)c4ccc(F)cc4)cc3)n(O)c2c1 [K] | < 4.60 | 4.60 to 5.00 | * (key: *: percent cytotoxicity above 75% at 50 μg/mL; **: cytotoxicities below 75% at 50 μg/mL) | * (percent cytotoxicities above 75% at 50 mg/mL)
13 | O=C(Nc1ccc(-c2nc3ccc([N+](=O)[O-])cc3n2O)cc1)c1ccc(F)c(F)c1 [P] | 4.60 to 5.00 | 4.60 to 5.00 | * (key: *: percent cytotoxicity above 75% at 50 μg/mL; **: cytotoxicities below 75% at 50 μg/mL) | * (percent cytotoxicities above 75% at 50 mg/mL)
14 | O=C(Nc1ccc(-c2nc3ccc([N+](=O)[O-])cc3n2O)cc1)c1ccc(-c2cncnc2)cc1 [R] | < 4.60 | 4.60 to 5.00 | ** (key: *: percent cytotoxicity above 75% at 50 μg/mL; **: cytotoxicities below 75% at 50 μg/mL) | * (percent cytotoxicities above 75% at 50 mg/mL)
15 | Cc1cc(C(=O)Nc2ccc(-c3nc4ccc([N+](=O)[O-])cc4n3O)cc2)ccc1F [S] | 4.60 to 5.00 | 4.60 to 5.00 | * (key: *: percent cytotoxicity above 75% at 50 μg/mL; **: cytotoxicities below 75% at 50 μg/mL) | * (percent cytotoxicities above 75% at 50 mg/mL)
16 | COc1cc(F)ccc1C(=O)Nc1ccc(-c2nc3ccc([N+](=O)[O-])cc3n2O)cc1 [T] | > 5.00 | > 5.00 | ** (key: *: percent cytotoxicity above 75% at 50 μg/mL; **: cytotoxicities below 75% at 50 μg/mL) | * (percent cytotoxicities above 75% at 50 mg/mL)
17 | O=C(Nc1ccc(-c2nc3ncc([N+](=O)[O-])cc3n2O)cc1)c1ccc(F)cc1 [X] | 4.60 to 5.00 | 4.60 to 5.00 | * (key: *: percent cytotoxicity above 75% at 50 μg/mL; **: cytotoxicities below 75% at 50 μg/mL) | * (percent cytotoxicities above 75% at 50 mg/mL)
18 | CC(=O)c1ccc(C(=O)Nc2ccc(-c3nc4ncc([N+](=O)[O-])cc4n3O)cc2)cc1 [Y] | 4.60 to 5.00 | > 5.00 | * (key: *: percent cytotoxicity above 75% at 50 μg/mL; **: cytotoxicities below 75% at 50 μg/mL) | * (percent cytotoxicities above 75% at 50 mg/mL)
